The structures appear in SMILES notation. Structures can show the parent of a compound that is named as a salt.

This is an account of results in patent US6906073B2, “Piperazine CCR-3 receptor antagonists” (Roche Palo Alto LLC, priority 2001, dated 2005).

Data set [1] concerns the target T1, CCR-3 receptor (Homo sapiens, UniProt P51677).
T1 construct: expressed in transfected cells; host or cells: L1.2 (murine pre-B lymphoma line)
T1 sequence (P51677 1-355): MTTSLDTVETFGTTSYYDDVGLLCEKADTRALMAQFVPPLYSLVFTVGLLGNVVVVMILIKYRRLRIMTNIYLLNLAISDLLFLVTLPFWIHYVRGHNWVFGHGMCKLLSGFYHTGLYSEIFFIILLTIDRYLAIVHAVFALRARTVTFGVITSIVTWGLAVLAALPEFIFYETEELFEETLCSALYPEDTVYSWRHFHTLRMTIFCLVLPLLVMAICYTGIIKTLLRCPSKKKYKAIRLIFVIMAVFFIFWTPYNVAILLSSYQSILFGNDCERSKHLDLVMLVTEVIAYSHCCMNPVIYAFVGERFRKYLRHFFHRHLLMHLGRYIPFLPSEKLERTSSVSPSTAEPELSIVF
As to the kind of experiment: CCR-3 Receptor Binding Assay - In Vitro (inhibition of 125I eotaxin binding to CCR-3 L1.2 transfectant cells). Conditions: inhibition of binding of 125I eotaxin to CCR-3 L1.2 transfectant cells, 1 hour at room temperature. As for the experimental part: CCR-3 Receptor Binding Assay—In Vitro
The CCR-3 antagonistic activity of the compounds of the invention was determined by their ability to inhibit the binding of ^125I eotaxin to CCR-3 L1.2 transfectant cells (see Ponath, P. D. et al., J. Exp. Med., Vol. 183, 2437-2448, (1996)).
The assay was performed in Costar 96-well polypropylene round bottom plates. Test compounds were dissolved in DMSO and then diluted with binding buffer (50 mM HEPES, 1 mM CaCl2, 5 mM MgCl2, 0.5% bovine serum albumin (BSA), 0.02% sodium azide, pH 7.24) such that the final DMSO concentration was 2%. 25 μl of the test solution or only buffer with DMSO (control samples) was added to each well, followed by the addition of 25 μl of ^125I-eotaxin ([…]) (NEX314, New England Nuclear, Boston, Mass.) and 1.5×10^5 of the CCR-3 L1.2 transfected cells in 25 μl binding buffer. The final reaction volume was 75 μl.
After incubating the reaction mixture for 1 hour at room temperature, the reaction was terminated by filtering the reaction mixture through polyethylenimine treated Packard Unifilter GF/C filter plate (Packard, Chicago, Ill.). The filters were washed four times with ice cold wash buffer containing 10 mm HEPES and 0.5M sodium chloride (pH 7.2) and dried at 65° C. for approximately 10 minutes. 25 μl/well of Microscint-20® scintillation fluid (Packard) was added and the radioactivity retained on the filters was determined by using the Packard TopCount®

The IC50 is the point on the concentration scale where inhibition reaches its midpoint. The low end stands for greater potency in that assay, the high end for weaker potency in that assay. The compound `O=C(Nc1ccccc1N1CCN(Cc2ccc(Cl)c(Cl)c2)CC1)c1ccc(F)c(F)c1` [compound 2, N-{2-[4-(3,4-dichlorobenzyl)-piperazin-1-yl]-phenyl}-3,4-difluoro-benzamide] had an IC50 in data set [1] of 36 µM.

As to `O=C(Cc1cccs1)Nc1ccccc1N1CCN(Cc2ccc(Cl)c(Cl)c2)CC1` [compound 1, N-{2-[4-(3,4-dichloro-benzyl)-piperazin-1-yl]-phenyl}-2-thiophen-2-yl-acetamide], the IC50 in data set [1] is 200 µM.

Consider `Cc1ccc(C(=O)NC2CCCCC2N2CCN(Cc3ccc(Cl)c(Cl)c3)CC2)cc1` (centres unmarked) [compound 3, N-{2-[4-(3,4-Dichloro-benzyl)-piperazin-1-yl]-cyclohexyl}-4-methyl-benzamide], for which the IC50 in data set [1] amounted to 12.8 µM.

A word on the melting point: it is the temperature, or range, at which the solid turns liquid. The compound `COc1cc(NC(=O)N[C@@H]2COC[C@H]2N2CCN(Cc3ccc(Cl)cc3)CC2)cc(OC)c1OC` (racemic) (as salt: hydrochloride) [compound 7, (±)-trans-1-{4-[4-(4-chlorobenzyl)-piperazin-1-yl]-tetrahydrofuran-3-yl}-3-(3,4,5-trimethoxyphenyl)urea dihydrochloride] displayed a melting point of 190.8 to 204.3 °C.

Consider `COc1cc(NC(=O)N[C@@H]2COC[C@H]2N2CCN(Cc3ccc(Cl)cc3)CC2)cc(OC)c1OC` (racemic) [compound 7, (±)-trans-1-{4-[4-(4-chlorobenzyl)-piperazin-1-yl]-tetrahydrofuran-3-yl}-3-(3,4,5-trimethoxyphenyl)urea dihydrochloride], for which the IC50 in data set [1] was determined as 0.11 µM.
